According to ChEMBL document CHEMBL1124623, “2,4-Diamino-5-benzylpyrimidines and analogues as antibacterial agents. 12. 1,2-Dihydroquinolylmethyl analogues with high activity and specificity for bacterial dihydrofolate reductase” (J Med Chem, 1989):
In brackets after ≈: the same amount, converted by molar mass.

Experiments:
Dihydrofolate reductase [1] = biological target: T1, Dihydrofolate reductase (Rattus norvegicus, UniProt Q920D2)
T1 sequence (Q920D2 whole entry): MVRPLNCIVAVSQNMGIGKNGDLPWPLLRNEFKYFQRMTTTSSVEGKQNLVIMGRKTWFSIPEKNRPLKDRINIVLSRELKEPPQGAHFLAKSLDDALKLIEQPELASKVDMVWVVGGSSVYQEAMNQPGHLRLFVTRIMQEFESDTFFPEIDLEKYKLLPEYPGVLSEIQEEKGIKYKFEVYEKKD
Description: Inhibitory activity against Dihydrofolate reductase in rat liver

[2] = Dissociation constant of compound at 20 degree C; type: physicochemical
Proteus vulgaris [3] = assay: Comparative in vitro antibacterial activity of compound with trimethoprim against Proteus vulgaris CN329; type: functional
Streptococcus pyogenes [4] = assay: Comparative in vitro antibacterial activity of compound with trimethoprim against Streptococcus pyogenes CN10; type: functional
Klebsiella pneumoniae [5] = assay: Comparative in vitro antibacterial activity of compound with trimethoprim against Klebsiella pneumoniae CN3632; type: functional
Klebsiella aerogenes [6] = assay: Comparative in vitro antibacterial activity of compound with trimethoprim against Enterobacter aerogenes 2200/86; type: functional
Salmonella typhimurium [7] = assay: Comparative in vitro antibacterial activity of compound with trimethoprim against Salmonella Typhimurium S 8587; type: functional, Salmonella enterica subsp. enterica serovar Typhimurium; conditions: Salmonella enterica
Escherichia coli [8] = assay: Comparative in vitro antibacterial activity of compound with trimethoprim against Escherichia coli CN314; type: functional
Enterococcus faecalis = assay: Comparative in vitro antibacterial activity of compound with trimethoprim against Streptococcus faecalis CN478; type: functional
Staphylococcus aureus = assay: Comparative in vitro antibacterial activity of compound with trimethoprim against Staphylococcus aureus CN491; type: functional
Vibrio cholerae = assay: Comparative in vitro antibacterial activity of compound with trimethoprim against Vibrio cholerae ATCC 14035; type: functional
Shigella flexneri [9] = assay: Comparative in vitro antibacterial activity of compound with trimethoprim against Shigella flexneri CN6007; type: functional
Streptococcus agalactiae [10] = assay: Comparative in vitro antibacterial activity of compound with trimethoprim against Streptococcus agalactiae CN1143; type: functional
[11] = Comparative in vitro antibacterial activity of compound with trimethoprim against Salmonella typhi CN512; type: functional, salmonella typhosa
Dihydrofolate reductase [12] = biological target: T2, Dihydrofolate reductase (Escherichia coli, UniProt P0ABQ4)
T2 sequence (P0ABQ4 whole entry): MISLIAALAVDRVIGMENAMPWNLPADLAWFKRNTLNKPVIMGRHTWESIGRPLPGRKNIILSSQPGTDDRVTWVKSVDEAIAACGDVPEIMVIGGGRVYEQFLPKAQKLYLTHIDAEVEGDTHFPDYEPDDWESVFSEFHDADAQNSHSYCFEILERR
Description: Apparent binding affinity of compound in Escherichia coli DHFR

Streptococcus agalactiae [13] = assay: Comparative in vitro antibacterial activity of compound with trimethoprim against Streptococcus agalactiae CN1143 on different day; type: functional
[14] = Comparative in vitro antibacterial activity of compound with trimethoprim against Salmonella typhi CN512 on different day; type: functional, salmonella typhosa
Shigella flexneri [15] = assay: Comparative in vitro antibacterial activity of compound with trimethoprim against Shigella flexneri CN6007 on different day; type: functional
Klebsiella pneumoniae [16] = assay: Comparative in vitro antibacterial activity of compound with trimethoprim against Klebsiella pneumoniae CN3632 on different day; type: functional
Proteus vulgaris [17] = assay: Comparative in vitro antibacterial activity of compound with trimethoprim against Proteus vulgaris CN329 on different day; type: functional
Klebsiella aerogenes [18] = assay: Comparative in vitro antibacterial activity of compound with trimethoprim against Enterobacter aerogenes 2200/86 on different day; type: functional
Streptococcus pyogenes [19] = assay: Comparative in vitro antibacterial activity of compound with trimethoprim against Streptococcus pyogenes CN10 on different day; type: functional
Escherichia coli [20] = assay: Comparative in vitro antibacterial activity of compound with trimethoprim against Escherichia coli CN314 on different day; type: functional
Salmonella typhimurium [21] = assay: Comparative in vitro antibacterial activity of compound with trimethoprim against Salmonella Typhimurium S 8587 on different day; type: functional, Salmonella enterica subsp. enterica serovar Typhimurium; conditions: Salmonella enterica
Dihydrofolate reductase [22] = biological target: T3, Dihydrofolate reductase (Gallus gallus, UniProt P00378); assay: Inhibitory activity against Dihydrofolate reductase in chicken; conditions: read-out: I50
T3 sequence (P00378 whole entry): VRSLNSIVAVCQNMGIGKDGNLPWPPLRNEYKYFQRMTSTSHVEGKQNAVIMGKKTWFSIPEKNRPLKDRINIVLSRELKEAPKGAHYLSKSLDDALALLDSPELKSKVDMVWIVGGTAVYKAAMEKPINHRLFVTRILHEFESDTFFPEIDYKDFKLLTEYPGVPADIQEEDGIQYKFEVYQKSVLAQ

| Structure (SMILES) | IC50 (Dihydrofolate reductase [1]) [µM] | MIC (Proteus vulgaris [3]) [µg/mL] | MIC (Streptococcus pyogenes [4]) [µg/mL] | MIC (Klebsiella pneumoniae [5]) [µg/mL] | MIC (Klebsiella aerogenes [6]) [µg/mL] | MIC (Salmonella typhimurium [7]) [µg/mL] | MIC (Escherichia coli [8]) [µg/mL] | MIC (Enterococcus faecalis) [µg/mL] | MIC (Staphylococcus aureus) [µg/mL] | MIC (Vibrio cholerae) [µg/mL] | MIC (Shigella flexneri [9]) [µg/mL] | MIC (Streptococcus agalactiae [10]) [µg/mL] | MIC [11] [µg/mL] | also measured |
| --- | --- | --- | --- | --- | --- | --- | --- | --- | --- | --- | --- | --- | --- | --- |
| CC1=CC(C)(C)Nc2c1cc(Cc1cnc(N)nc1N)cc2[S+](C)[O-] (stereo unspecified) | 56 | – | – | – | – | – | – | – | – | – | – | – | – | – |
| CC1=CC(C)(C)Nc2ccccc21 | – | – | – | – | – | – | – | – | – | – | – | – | – | pKa [2]: 3.69 |
| COc1cc(Cc2cnc(N)nc2N)cc2c(C)ccnc12 | 20 | – | – | – | – | – | – | – | – | – | – | – | – | – |
| CC1=CC(C)(C)Nc2c(Cl)cc(Cc3cnc(N)nc3N)cc21 | 76 | 30 (≈ 91 µM) | 10 (≈ 30.3 µM) | 30 (≈ 91 µM) | 300 (≈ 910 µM) | 30 (≈ 91 µM) | 100 (≈ 303 µM) | 300 (≈ 910 µM) | 30 (≈ 91 µM) | 100 (≈ 303 µM) | 100 (≈ 303 µM) | 100 (≈ 303 µM) | 30 (≈ 91 µM) | – |
| CC1=CC(C)(C)Nc2c(C)cc(Cc3cnc(N)nc3N)cc21 | 500 | – | – | – | – | – | – | – | – | – | – | – | – | – |
| CCc1cc(Cc2cnc(N)nc2N)cc2c1NC(C)(C)C=C2C | 174 | – | – | – | – | – | – | – | – | – | – | – | – | – |
| COc1cc(Cc2cnc(N)nc2N)cc2c1N(C)C(C)(C)C=C2C | 340 | – | – | – | – | – | – | – | – | – | – | – | – | – |
| CSc1cc(Cc2cnc(N)nc2N)cc2c1NC(C)(C)C=C2C | 118 | > 100 | 0.1 (≈ 0.293 µM) | 100 (≈ 293 µM) | 10 (≈ 29.3 µM) | 30 (≈ 87.9 µM) | 10 (≈ 29.3 µM) | ≤ 0.03 | 0.3 (≈ 0.879 µM) | 1 (≈ 2.93 µM) | 30 (≈ 87.9 µM) | 0.3 (≈ 0.879 µM) | 30 (≈ 87.9 µM) | Ki (Dihydrofolate reductase [12]): 0.00043 µM |
| COc1cc(Cc2cnc(N)nc2N)cc2c1NC(C)(CF)C(F)=C2C (stereo unspecified) | 233 | 3 (≈ 8.3 µM) | 0.03 (≈ 0.083 µM) | 10 (≈ 27.7 µM) | 1 (≈ 2.77 µM) | 3 (≈ 8.3 µM) | 1 (≈ 2.77 µM) | 0.0001 (≈ 0.000277 µM) | 0.001 (≈ 0.00277 µM) | 3 (≈ 8.3 µM) | 3 (≈ 8.3 µM) | 0.1 (≈ 0.277 µM) | 1 (≈ 2.77 µM) | MIC (Streptococcus agalactiae [13]): 0.03 µg/mL (≈ 0.083 µM); MIC [14]: 30 µg/mL (≈ 83 µM); MIC (Shigella flexneri [15]): 0.3 µg/mL (≈ 0.83 µM); MIC (Klebsiella pneumoniae [16]): 1 µg/mL (≈ 2.77 µM); MIC (Proteus vulgaris [17]): 3 µg/mL (≈ 8.3 µM); MIC (Klebsiella aerogenes [18]): 10 µg/mL (≈ 27.7 µM); Ki (Dihydrofolate reductase [12]): 0.0001 µM; MIC (Streptococcus pyogenes [19]): 0.0001 µg/mL (≈ 0.000277 µM); MIC (Escherichia coli [20]): 10 µg/mL (≈ 27.7 µM); MIC (Salmonella typhimurium [21]): 3 µg/mL (≈ 8.3 µM) |
| COc1cc(Cc2cnc(N)nc2N)cc2c1NC(C)(C)C=C2C | 300 | 3 (≈ 9.22 µM) | 0.1 (≈ 0.307 µM) | 10 (≈ 30.7 µM) | 3 (≈ 9.22 µM) | 10 (≈ 30.7 µM) | 3 (≈ 9.22 µM) | 0.1 (≈ 0.307 µM) | 0.3 (≈ 0.922 µM) | 3 (≈ 9.22 µM) | 3 (≈ 9.22 µM) | 0.3 (≈ 0.922 µM) | 10 (≈ 30.7 µM) | IC50 (Dihydrofolate reductase [22]): 1.3 µM |
| CN1CCCc2ccccc21 | – | – | – | – | – | – | – | – | – | – | – | – | – | pKa [2]: 4.1 |
